Reference: US20230339970A1, “CASEIN KINASE 1 DELTA MODULATORS” (priority 2020, published 2023)
pIC50: −log10 of the molar value.

Tests used:
human CSNK1D = target: T1, human CSNK1D (Homo sapiens, UniProt P48730); test: Whole Cell nBRET CSNK1D Binding Assay; conditions: living CHO cells stably expressing human CSNK1D tagged with nanoluciferase; NanoBret tracer 130 nM; 2 hours at 37 C
T1 construct: expressed in transfected cells

[1] = target: T2, human recombinant GST cleaved CSNK1D (Homo sapiens, UniProt P48730); test: Purified Enzyme Assay (ADP-Glo CSNK1D Kinase Assay); type: biochemical; conditions: 2 nM CSNK1D; peptide substrate 150 μM; ATP 20 μM; 45 minutes at room temperature
T2 construct: GST (cleaved yes); purchased University of Dundee clone DU 19064
T2 sequence (P48730 whole entry): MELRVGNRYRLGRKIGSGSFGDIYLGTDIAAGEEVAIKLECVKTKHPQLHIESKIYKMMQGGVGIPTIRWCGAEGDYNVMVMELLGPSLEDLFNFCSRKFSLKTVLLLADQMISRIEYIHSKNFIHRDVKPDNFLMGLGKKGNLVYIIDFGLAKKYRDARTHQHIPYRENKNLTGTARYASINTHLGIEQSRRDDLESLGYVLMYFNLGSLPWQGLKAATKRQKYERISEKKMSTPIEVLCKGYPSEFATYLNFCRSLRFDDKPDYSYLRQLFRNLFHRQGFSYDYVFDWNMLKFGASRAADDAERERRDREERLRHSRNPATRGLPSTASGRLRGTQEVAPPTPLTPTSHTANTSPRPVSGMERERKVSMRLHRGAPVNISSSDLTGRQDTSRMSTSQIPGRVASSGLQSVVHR
In short: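 Percent activity derived from ADP-Glo quantification of ADP produced. Reactions: compound dose-response with human recombinant GST-cleaved CSNK1D, ATP and substrate peptide PLSRTL-pS-VASLPGL, incubated 45 min at room temperature.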

T1 sequence (P48730 whole entry): as above

CCC(=O)Nc1cc(-c2c(-c3ccc(F)cn3)nn3c2OCCC3C)ccn1 (centres unmarked) [Example 445, N-(4-(2-(5-Fluoropyridin-2-yl)-7-methyl-6,7-dihydro-5H-pyrazolo[5,1-b][1,3]oxazin-3-yl)pyridin-2-yl)propionamide]
pIC50 (human CSNK1D): 6.68
pIC50 [1]: 8.00

CC1(C)Cc2c(-c3ccnc4[nH]ncc34)c(-c3ccc(F)cc3)nn2C1 [Example 231, 4-[2-(4-Fluorophenyl)-5,5-dimethyl-4,6-dihydropyrrolo[1,2-b]pyrazol-3-yl]-1H-pyrazolo[3,4-b]pyridine]
pIC50 (human CSNK1D): 8.40
pIC50 [1]: 9.00

Cc1cc(-c2c(-c3ccc(F)cn3)nn3c2OC(C)CC3)c2cn[nH]c2n1 (single isomer, unassigned) [Example 200, (*S)-2-(5-Fluoro-2-pyridyl)-5-methyl-3-(6-methyl-1H-pyrazolo[3,4-b]pyridin-4-yl)-6,7-dihydro-5H-pyrazolo[5,1-b][1,3]oxazine]
pIC50 (human CSNK1D): 7.25
pIC50 [1]: 8.40

Fc1ccc(-c2nn3c(c2-c2ccnc4[nH]ncc24)CO[C@H](C(F)(F)F)C3)cc1 [Example 100, (S)-2-(4-Fluorophenyl)-3-(1H-pyrazolo[3,4-b]pyridin-4-yl)-6-(trifluoromethyl)-6,7-dihydro-4H-pyrazolo[5,1-c][1,4]oxazine]
pIC50 (human CSNK1D): 6.16
pIC50 [1]: 7.26

Fc1ccc(-c2nn3c(c2-c2c(F)cnc4[nH]ncc24)CC2(C3)CC2(F)F)nc1 (single isomer, unassigned) [Example 259, (*R)-1′.1′-Difluoro-3-(5-fluoro-1H-pyrazolo[3,4-b]pyridin-4-yl)-2-(5-fluoro-2-pyridyl)spiro[4,6-dihydropyrrolo[1,2-b]pyrazole-5,2′-cyclopropane]]
pIC50 (human CSNK1D): 5.72
pIC50 [1]: 7.10

Fc1ccc(-c2nn3c(c2-c2ccnc4[nH]nc(Cl)c24)OCC(F)(F)C3)cc1 [Example 470, 3-(3-Chloro-1H-pyrazolo[3,4-b]pyridin-4-yl)-6,6-difluoro-2-(4-fluorophenyl)-6,7-dihydro-5H-pyrazolo[5,1-b][1,3]oxazine]
pIC50 (human CSNK1D): 7.77
pIC50 [1]: 9.00

Cc1cc(-c2c(-c3ccc(F)cc3)nn3c2OCC2(C3)CC2(F)F)c2cn[nH]c2n1 (single isomer, unassigned) [Example 474, *S-2,2-Difluoro-2′-(4-fluorophenyl)-3′-6-methyl-1H-pyrazolo[3,4-b]pyridin-4-yl)-5′H,7′H-spiro[cyclopropane-1,6′-pyrazolo[5,1-b][1,3]oxazine]]
pIC50 (human CSNK1D): 8.70
pIC50 [1]: 9.00

Cc1cc(-c2c(-c3ccc(F)cn3)nn3c2CC(C)(C)C3)c2cn[nH]c2n1 [Example 238, 4-[2-(5-Fluoro-2-pyridyl)-5,5-dimethyl-4,6-dihydropyrrolo[1,2-b]pyrazol-3-yl]-6-methyl-1H-pyrazolo[3,4-b]pyridine]
pIC50 (human CSNK1D): 7.64
pIC50 [1]: 8.70

CC1(O)COCc2c(-c3ccnc4[nH]ncc34)c(-c3ccc(F)cn3)nn2C1 (centres unmarked) [Example 484, 2-(5-Fluoropyridin-2-yl)-7-methyl-3-(1H-pyrazolo[3,4-b]pyridin-4-yl)-7,8-dihydro-4H,6H-pyrazolo[5,1-c][1,4]oxazepin-7-ol]
pIC50 (human CSNK1D): < 5.00
pIC50 [1]: 6.64

CC1COc2c(-c3ccnc4[nH]ncc34)c(-c3ccc(F)cc3)nn2C1 (centres unmarked) [Example 191, (R S)-2-(4-Fluorophenyl)-6-methyl-3-(1H-pyrazolo[3,4-b]pyridin-4-yl)-6,7-dihydro-5H-pyrazolo[5,1-b][1,3]oxazine]
pIC50 (human CSNK1D): 8.30
pIC50 [1]: > 9.30

C[C@H]1CCc2c(-c3ccnc4[nH]ncc34)c(-c3ccc(F)cn3)nn21 [Example 19, 4-[(6S)-2-(5-Fluoro-2-pyridyl)-6-methyl-5,6-dihydro-4H-pyrrolo[1,2-b]pyrazol-3-yl]-1H-pyrazolo[3,4-b]pyridine]
pIC50 (human CSNK1D): 6.72
pIC50 [1]: 8.10

CC1(C)Cn2nc(-c3ccc(F)cn3)c(-c3ccnc4[nH]nc(Cl)c34)c2CO1 [Example 388, 3-(3-Chloro-1H-pyrazolo[3,4-b]pyridin-4-yl)-2-(5-fluoropyridin-2-yl)-6,6-dimethyl-6,7-dihydro-4H-pyrazolo[5,1-c][1,4]oxazine]
pIC50 (human CSNK1D): 7.85
pIC50 [1]: 8.40

Fc1ccc(-c2nn3c(c2-c2ccn4nccc4c2)CC[C@@H]2[C@H]3C2(F)F)cc1 (stereo in doubt) [Example 354, (5a*R,6a*S)-6,6-difluoro-2-(4-fluorophenyl)-3-(pyrazolo[1,5-a]pyridin-4-yl)-5,5a,6,6a-tetrahydro-4H-cyclopropa[e]pyrazolo[1,5-a]pyridine]
pIC50 (human CSNK1D): 7.15
pIC50 [1]: 7.74

CCn1ncc2cc(-c3c(-c4ccc(F)cn4)nn4c3CCC4)cnc21 [Example 223, 1-Ethyl-5-(2-(5-fluoropyridin-2-yl)-5,6-dihydro-4H-pyrrolo[1,2-b]pyrazol-3-yl)-1H-pyrazolo[3,4-b]pyridine]
pIC50 (human CSNK1D): 6.05
pIC50 [1]: 7.66

Cc1cc(-c2c(-c3cscn3)nn3c2COC(C)(C)C3)c2cn[nH]c2n1 [Example 125, 6,6-Dimethyl-3-(6-methyl-1H-pyrazolo[3,4-b]pyridin-4-yl)-2-(thiazol-4-yl)-6,7-dihydro-4H-pyrazolo[5,1-c][1,4]oxazine]
pIC50 (human CSNK1D): 6.57
pIC50 [1]: 7.92

CCn1ncc2cc(-c3c(-c4ccc(F)cn4)nn4c3OCCC4)cnc21 [Example 441, 3-(1-Ethyl-1H-pyrazolo[3,4-b]pyridin-5-yl)-2-(5-fluoropyridin-2-yl)-6,7-dihydro-5H-pyrazolo[5,1-b][1,3]oxazine]
pIC50 (human CSNK1D): 5.73
pIC50 [1]: 7.36

Fc1ccc(-c2nn3c(c2-c2ccnc4[nH]ncc24)OCC2(CC2)C3)cc1 [Example 457, 2′-(4-Fluorophenyl)-3′-(1H-pyrazolo[3,4-b]pyridin-4-yl)-5′H,7′H-spiro[cyclopropane-1,6′-pyrazolo[5,1-b][1,3]oxazine]]
pIC50 (human CSNK1D): 8.70
pIC50 [1]: 9.00

Fc1ccc(-c2nn3c(c2-c2ccn4nccc4c2)OCCC3)nc1 [Example 440, 2-(5-Fluoropyridin-2-yl)-3-(pyrazolo[1,5-a]pyridin-5-yl)-6,7-dihydro-5H-pyrazolo[5,1-b][1,3]oxazine]
pIC50 (human CSNK1D): 6.29
pIC50 [1]: 7.36

CC1(C)CCc2c(-c3c(F)cnc4[nH]ncc34)c(-c3ccc(F)cn3)nn2C1 [Example 282, 5-Fluoro-4-[2-(5-fluoro-2-pyridyl)-6,6-dimethyl-5,7-dihydro-4H-pyrazolo[1,5-a]pyridin-3-yl]-1H-pyrazolo[3,4-b]pyridine]
pIC50 (human CSNK1D): 7.32
pIC50 [1]: 8.05

Cc1nc2cc(-c3c(-c4ccc(F)cn4)nn4c3COC(C)(C)C4)ccn2n1 [Example 386, 2-(5-Fluoropyridin-2-yl)-6,6-dimethyl-3-(2-methyl-[1,2,4]triazolo[1,5-a]pyridin-7-yl)-6,7-dihydro-4H-pyrazolo[5,1-c][1,4]oxazine]
pIC50 (human CSNK1D): 5.02
pIC50 [1]: 6.79

[2H]C([2H])([2H])[C@@]1(C([2H])([2H])F)CCc2c(-c3c(F)cnc4[nH]ncc34)c(-c3ccc(F)cn3)nn2C1 (single isomer, unassigned) [Example 294, (*R)-5-Fluoro-4-(6-(fluoromethyl-d2)-2-(5-fluoropyridin-2-yl)-6-(methyl-d3)-4,5,6,7-tetrahydropyrazolo[1,5-a]pyridin-3-yl)-1H-pyrazolo[3,4-b]pyridine]
pIC50 (human CSNK1D): 7.64
pIC50 [1]: 8.70

CC1(CF)CCc2c(-c3ccn4nccc4c3)c(-c3ccc(F)cn3)nn2C1 (single isomer, unassigned) [Example 290, (*S)-5-[6-(Fluoromethyl)-2-(5-fluoro-2-pyridyl)-6-methyl-5,7-dihydro-4H-pyrazolo[1,5-a]pyridin-3-yl]pyrazolo[1,5-a]pyridine]
pIC50 (human CSNK1D): 6.92
pIC50 [1]: 6.27

[2H]C([2H])([2H])C1(C([2H])([2H])[2H])Cn2nc(-c3ccc(F)cn3)c(-c3c(F)cnc4[nH]nc(Cl)c34)c2CO1 [Example 403, 3-(3-Chloro-5-fluoro-1H-pyrazolo[3,4-b]pyridin-4-yl)-2-(5-fluoropyridin-2-yl)-6,6-bis(methyl-d3)-6,7-dihydro-4H-pyrazolo[5,1-c][1,4]oxazine]
pIC50 (human CSNK1D): 7.64
pIC50 [1]: 8.30

FCC1Cn2nc(-c3ccc(F)cc3)c(-c3ccnc4[nH]ncc34)c2CO1 (single isomer, unassigned) [Example 104, (*S)-6-(Fluoromethyl)-2-(4-fluorophenyl)-3-(1H-pyrazolo[3,4-b]pyridin-4-yl)-6,7-dihydro-4H-pyrazolo[5,1-c][1,4]oxazine]
pIC50 (human CSNK1D): 7.31
pIC50 [1]: 8.40

CC1(C)Cn2nc(-c3cnco3)c(-c3ccnc4[nH]ncc34)c2CO1 [Example 126, 6,6-Dimethyl-2-(oxazol-5-yl)-3-(1H-pyrazolo[3,4-b]pyridin-4-yl)-6,7-dihydro-4H-pyrazolo[5,1-c][1,4]oxazine]
pIC50 (human CSNK1D): 6.08
pIC50 [1]: 7.68

Fc1ccc(-c2nn3c(c2-c2c(F)cnc4[nH]ncc24)CC[C@@]2(C3)CC2(F)F)nc1 (single isomer, unassigned) [Example 329, (*S)-2,2-Difluoro-3′-(5-fluoro-1H-pyrazolo[3,4-b]pyridin-4-yl)-2′-(5-fluoropyridin-2-yl)-4′,5′-dihydro-7′H-spiro[cyclopropane-1,6′-pyrazolo[1,5-a]pyridine]]
pIC50 (human CSNK1D): 6.79
pIC50 [1]: 7.64

CC1COc2c(-c3ccnc4[nH]ncc34)c(-c3ccc(F)cn3)nn2C1 (centres unmarked) [Example 196, 2-(5-Fluoropyridin-2-yl)-6-methyl-3-(1H-pyrazolo[3,4-b]pyridin-4-yl)-6,7-dihydro-5H-pyrazolo[5,1-b][1,3]oxazine]
pIC50 (human CSNK1D): 7.40
pIC50 [1]: 8.70

Cc1cc(-c2c(-c3ccc(F)cc3)nn3c2COCC3(C)C)c2cn[nH]c2n1 [Example 121, 2-(4-Fluorophenyl)-7,7-dimethyl-3-(6-methyl-1H-pyrazolo[3,4-b]pyridin-4-yl)-4,6-dihydropyrazolo[5,1-c][1,4]oxazine]
pIC50 (human CSNK1D): 6.63
pIC50 [1]: 7.85
